Target: ATP-dependent translocase ABCB1 (Homo sapiens, UniProt P08183)
Assay: TP_TRANSPORTER: inhibition of Verapamil binding in membranes from Vinblastine-induced Caco-2 cells
Assay type: functional, cell membranes, Membrane

ATP-dependent translocase ABCB1, sequence (P08183 whole entry): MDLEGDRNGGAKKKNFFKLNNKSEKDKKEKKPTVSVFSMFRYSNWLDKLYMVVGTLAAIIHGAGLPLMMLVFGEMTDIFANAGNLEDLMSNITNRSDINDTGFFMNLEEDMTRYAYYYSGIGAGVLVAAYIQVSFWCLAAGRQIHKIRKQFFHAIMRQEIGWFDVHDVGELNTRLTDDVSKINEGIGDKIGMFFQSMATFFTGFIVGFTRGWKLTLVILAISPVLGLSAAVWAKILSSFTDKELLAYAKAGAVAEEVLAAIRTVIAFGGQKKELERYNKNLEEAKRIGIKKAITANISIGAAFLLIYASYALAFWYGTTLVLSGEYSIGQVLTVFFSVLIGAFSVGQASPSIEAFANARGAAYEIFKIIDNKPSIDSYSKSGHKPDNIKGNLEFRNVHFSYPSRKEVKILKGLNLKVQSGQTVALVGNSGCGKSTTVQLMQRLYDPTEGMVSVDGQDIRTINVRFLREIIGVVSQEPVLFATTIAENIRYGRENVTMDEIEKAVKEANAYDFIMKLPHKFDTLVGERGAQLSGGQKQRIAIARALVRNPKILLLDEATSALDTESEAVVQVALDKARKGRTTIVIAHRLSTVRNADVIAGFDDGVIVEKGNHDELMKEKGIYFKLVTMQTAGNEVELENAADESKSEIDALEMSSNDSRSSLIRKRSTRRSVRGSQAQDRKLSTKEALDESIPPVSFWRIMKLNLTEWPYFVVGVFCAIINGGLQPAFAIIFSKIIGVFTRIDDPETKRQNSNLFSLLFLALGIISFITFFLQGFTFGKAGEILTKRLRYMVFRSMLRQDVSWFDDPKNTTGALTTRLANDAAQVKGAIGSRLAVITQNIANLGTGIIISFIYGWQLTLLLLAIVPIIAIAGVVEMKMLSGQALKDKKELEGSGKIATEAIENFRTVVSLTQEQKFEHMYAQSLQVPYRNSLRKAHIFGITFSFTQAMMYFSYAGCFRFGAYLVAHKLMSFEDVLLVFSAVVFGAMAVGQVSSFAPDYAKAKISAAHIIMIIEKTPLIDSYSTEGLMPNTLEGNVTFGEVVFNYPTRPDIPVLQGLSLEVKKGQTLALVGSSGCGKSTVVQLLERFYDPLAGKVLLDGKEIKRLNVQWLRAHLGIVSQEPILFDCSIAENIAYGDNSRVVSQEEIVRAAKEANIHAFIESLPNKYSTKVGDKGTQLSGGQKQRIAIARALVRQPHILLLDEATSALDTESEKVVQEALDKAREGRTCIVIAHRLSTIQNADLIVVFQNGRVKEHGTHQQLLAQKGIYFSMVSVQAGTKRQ

## COC(=O)c1ccccc1-c1c2ccc(=N)cc-2oc2cc(N)ccc12 [RHODAMINE123]
read-out: Ki1
  Ki: 110 nM
read-out: Ki2
  Ki: 3400 nM

## CC[C@]1(O)C[C@H]2CN(CCc3c([nH]c4ccccc34)[C@@](C(=O)OC)(c3cc4c(cc3OC)N(C=O)[C@H]3[C@@](O)(C(=O)OC)[C@H](OC(C)=O)[C@]5(CC)C=CCN6CC[C@]43[C@@H]65)C2)C1 [VINCRISTINE]
read-out: Ki1
  Ki: 470 nM
read-out: Ki2
  Ki: 148000 nM

Reference: ChEMBL document CHEMBL2074241, “Characterization of binding properties to human P-glycoprotein: development of a [3H]verapamil radioligand-binding assay” (J Pharmacol Exp Ther, 1999)
